Laboratory results reported in paper PMC8881069, “Thio- and selenosemicarbazones as antiprotozoal agents against Trypanosoma cruzi and Trichomonas vaginalis” (Journal of Enzyme Inhibition and Medicinal Chemistry, 2022).

Experiments:
[1] = tested on: Trichomonas vaginalis; test: Trichomonacidal in vitro assay (resazurin); format: cell-based; details: isolate JH31A#4, 24 h, brackets: 95% confidence interval
[2] = tested on: Vero cells; test: Unspecific cytotoxicity assay in Vero cells (resazurin); format: cell-based, African green monkey; details: for CC50 at 24 h: African green monkey; for CC50 at 24 h / CC50: Vero cells, brackets: 95% confidence interval, 24 h; for unspecific cytotoxicity towards Vero cells (in words): highest concentration evaluated (300 µM)
[3] = tested on: L929 cells; test: Unspecific cytotoxicity assay on L929 fibroblasts (resazurin); format: cell-based; details: mean ± SD, n = 3; for CC50 at 72 h: mouse; for CC50: 72 h
[4] = tested on: Trypanosoma cruzi CL-B5 (DTU TcVI) epimastigotes; test: CL-B5 lacZ epimastigote susceptibility assay (CPRG); format: cell-based; details: T. cruzi CL-B5 lacZ epimastigotes, 72 h, mean ± SD, n = 3
[5] = tested on: Trypanosoma cruzi Y (DTU TcII) epimastigotes; test: Y strain epimastigote susceptibility assay (resazurin); format: cell-based; details: T. cruzi Y strain epimastigotes, 48 h, mean ± SD, n = 3
[6] = tested on: J774 cells; test: Unspecific cytotoxicity assay on J774 macrophages (resazurin); format: cell-based, mouse; details: mean ± SD, n = 3; for CC50 at 48 h: mouse
[7] = tested on: Trypanosoma cruzi CL-B5 amastigotes; test: CL-B5 lacZ intracellular amastigote susceptibility assay (CPRG); format: cell-based; details: intracellular amastigotes in L929 cells, 7 days, mean ± SD, n = 3
[8] = tested on: hydrogenosome membrane potential of T. vaginalis; test: Hydrogenosomal membrane potential assay (JC-1); details: Figure 3; 4 h; 51 and 63 at 100 µM, MTZ 24 µM, CCCP 50 µM
[9] = Vero CCL-81 cells (kidney epithelial cells)

SMILES | IC50 ([1]; Trichomonas vaginalis, 24 h) | CC50 at 72 h [3] | IC50 ([4]; Trypanosoma cruzi) | further results
NNC(=S)Nc1ccc(Cl)cc1 [Compound 25] | 49.2 µM | 67.7 ± 3.16 µM | 44.2 ± 13.6 µM | CC50 at 24 h [2, 9]: > 300 µM
NNC(=S)Nc1ccc(F)cc1 [Compound 24] | 200 µM | > 256 µM | 58.8 ± 8.77 µM | IC50 ([5]; Trypanosoma cruzi): 97.3 ± 3.45 µM; CC50 at 48 h [6]: > 256 µM
NNC(=S)Nc1cccc([N+](=O)[O-])c1 [Compound 29] | 19.1 µM | 206 ± 7.25 µM | 79.9 ± 15.4 µM | CC50 at 24 h [2, 9]: > 300 µM
Oc1ccc(/C=N/NC(=S)Nc2ccc(F)cc2)cc1O [Compound 45] | 226 µM | 30.5 ± 3.93 µM | 97.4 ± 5.33 µM | –
Oc1ccc(/C=N/NC(=S)Nc2ccc(Br)cc2)cc1O [Compound 49] | 11.1 µM | 16.7 ± 0.7 µM | 104 ± 15.7 µM | IC50 [1]: 16.4 µM; CC50 at 24 h [2, 9]: ≥ 275 µM; CC50 [2]: > 300 µM; unspecific cytotoxicity towards Vero cells (in words) [2]: did not exhibit unspecific cytotoxicity
O=[N+]([O-])c1cccc(NC(=S)N/N=C/c2ccc(O)cc2)c1 [Compound 56] | 24.3 µM | 28.8 ± 3.25 µM | 36.9 ± 3.84 µM | CC50 at 24 h [2, 9]: 169 µM
COc1ccc(/C=N/NC(=S)Nc2ccc(OC)cc2)cc1 [Compound 43] | 258 µM | > 256 µM | 26.8 ± 2.68 µM | IC50 ([7]; Trypanosoma cruzi, 168 h): 39 ± 14.3 µM; IC50 ([5]; Trypanosoma cruzi): 55.6 ± 16.3 µM; CC50 at 48 h [6]: > 256 µM
COc1ccc(/C=N/NC(=[Se])Nc2ccc(I)cc2)cc1 [Compound 75] | 11 µM | – | – | unspecific cytotoxicity towards Vero cells (in words) [2]: did not present toxic effects at the maximum concentration tested
NNC(=S)Nc1ccc(I)cc1 [Compound 27] | 75.7 µM | 51 ± 8.88 µM | 49.8 ± 14.2 µM | –
O=[N+]([O-])c1ccc(NC(=S)N/N=C/c2ccc(O)cc2)cc1 [Compound 59] | 36 µM | 29.4 ± 2.52 µM | 76.4 ± 9.91 µM | CC50 at 24 h [2, 9]: 254 µM
Oc1ccc(/C=N/NC(=S)Nc2cccc3ccccc23)cc1O [Compound 65] | – | – | – | IC50 [1]: 20.1 µM; CC50 [2]: 175 µM; CC50 [3]: 28.8 ± 7.77 µM; IC50 [4]: 70.2 ± 6.99 µM
COc1ccc(/C=N/NC(=S)Nc2ccc([N+](=O)[O-])cc2)cc1 [Compound 60] | 155 µM | > 256 µM | > 256 µM | –
NNC(=S)Nc1ccc([N+](=O)[O-])cc1 [Compound 30] | 106 µM | 23.6 ± 2.84 µM | 72.5 ± 1.23 µM | –
Oc1ccc(/C=N/NC(=S)Nc2ccccc2)cc1 [Compound 36] | 74 µM | 46.29 ± 0.15 µM | 70.9 ± 11 µM | –
Oc1ccc(/C=N/NC(=S)Nc2cccc3ccccc23)cc1 [Compound 63] | – | – | – | IC50 [1]: 14.9 µM; CC50 [2]: 275 µM; CC50 [3]: 31.1 ± 9.21 µM; JC-1 fluorescence distribution in trophozoites (fluorescence microscopy) [8]: fluorescence restricted to certain regions of the parasite; IC50 [4]: 53.6 ± 11.3 µM
NNC(=S)Nc1cccc2ccccc12 [Compound 31] | – | – | – | IC50 [1]: 30.2 µM; CC50 [2]: > 300 µM; IC50 [7]: 39.7 ± 9.91 µM; CC50 [3]: > 256 µM; IC50 [5]: 33.6 ± 5.72 µM; IC50 [4]: 28.7 ± 4.61 µM; CC50 ([6]; 48 h): > 256 µM
COc1ccc(/C=N/NC(=S)Nc2ccccc2)cc1 [Compound 37] | 167 µM | > 256 µM | – | IC50 ([5]; Trypanosoma cruzi): 85.1 ± 17.2 µM; CC50 at 48 h [6]: > 256 µM
O=[N+]([O-])c1cccc(NC(=S)N/N=C/c2ccc(O)c(O)c2)c1 [Compound 58] | 73.4 µM | 12 ± 1.42 µM | 33.8 ± 7.59 µM | –
O=C(Cn1ccnc1[N+](=O)[O-])NCc1ccccc1 [Benznidazole, benznidazole, reference compound] | – | > 256 µM | 25.3 ± 1.63 µM | IC50 ([7]; Trypanosoma cruzi, 168 h): 0.47 ± 0.09 µM; IC50 ([5]; Trypanosoma cruzi): 22.7 ± 1.82 µM; CC50 at 48 h [6]: > 256 µM
N#CC(C#N)=NNc1cccc(Cl)c1 [CCCP, m-chlorocarbonylcyanide phenylhydrazone, reference compound] | – | – | – | JC-1 fluorescence distribution in trophozoites (fluorescence microscopy) [8]: provokes a disturbance in the hydrogenosome membrane potential
COc1ccc(/C=N/NC(=S)Nc2cccc3ccccc23)cc1 [Compound 64] | – | – | – | IC50 [1]: 30.5 µM; CC50 [2]: > 300 µM; CC50 [3]: > 256 µM; IC50 [4]: > 256 µM
Oc1ccc(/C=N/NC(=S)Nc2ccccc2)cc1O [Compound 38] | 88.6 µM | 45.2 ± 0.58 µM | 15.3 ± 2.22 µM | –

SMILES | IC50 ([1]; Trichomonas vaginalis, 24 h) | CC50 at 72 h [3] | IC50 ([4]; Trypanosoma cruzi) | further results
O=[N+]([O-])c1ccccc1NC(=S)N/N=C/c1ccc(O)c(O)c1 [Compound 55] | 133 µM | 21.4 ± 4.12 µM | 42 ± 9.06 µM | –
COc1ccc(/C=N/NC(=S)Nc2ccccc2[N+](=O)[O-])cc1 [Compound 54] | 34.2 µM | > 256 µM | 210 ± 14.5 µM | CC50 at 24 h [2, 9]: > 300 µM
Cc1ccc(NC(=S)N/N=C/c2ccc(O)c(O)c2)cc1 [Compound 41] | 80.6 µM | 20 ± 1.87 µM | 119 ± 7.68 µM | –
COc1ccc(/C=N/NC(=S)Nc2cccc([N+](=O)[O-])c2)cc1 [Compound 57] | 51.9 µM | > 256 µM | 23 ± 6.33 µM | IC50 ([7]; Trypanosoma cruzi, 168 h): 22.3 ± 4.2 µM; IC50 ([5]; Trypanosoma cruzi): > 256 µM; CC50 at 48 h [6]: > 256 µM
COc1ccc(/C=N/NC(=S)Nc2ccc(Br)cc2)cc1 [Compound 48] | 55.1 µM | > 256 µM | > 256 µM | –
O=[N+]([O-])c1ccccc1NC(=S)N/N=C/c1ccc(O)cc1 [Compound 53] | 92.8 µM | 34.9 ± 8.65 µM | 21.8 ± 2.98 µM | –
NNC(=S)Nc1ccccc1[N+](=O)[O-] [Compound 28] | > 300 µM | 210 ± 15.3 µM | 44.1 ± 5.38 µM | –
COc1ccc(/C=N/NC(=S)Nc2ccc(F)cc2)cc1 [Compound 44] | > 300 µM | > 256 µM | > 256 µM | –
Oc1ccc(/C=N/NC(=[Se])Nc2ccc(Br)cc2)cc1O [Compound 74] | 11.1 µM | – | – | CC50 at 24 h [2]: 114 µM
Cc1ccc(NC(=S)N/N=C/c2ccc(O)cc2)cc1 [Compound 39] | 66.1 µM | 61 ± 3.72 µM | 39.6 ± 7.08 µM | –
Cc1ncc([N+](=O)[O-])n1CCO [Metronidazole, metronidazole, reference compound] | 2.68 µM | – | – | CC50 at 24 h [2, 9]: > 300 µM; JC-1 fluorescence distribution in trophozoites (fluorescence microscopy) [8]: fluorescence restricted to certain regions of the parasite
COc1ccc(/C=N/NC(=S)Nc2ccc(C)cc2)cc1 [Compound 40] | 226 µM | > 256 µM | > 256 µM | –
COc1ccc(NC(=S)N/N=C/c2ccc(O)cc2)cc1 [Compound 42] | 64.8 µM | 43.3 ± 16.6 µM | 49.2 ± 9.97 µM | –
Oc1ccc(/C=N/NC(=S)Nc2ccc(I)cc2)cc1 [Compound 50] | 42.2 µM | 41.4 ± 8.36 µM | 22.8 ± 1.61 µM | CC50 at 24 h [2, 9]: > 300 µM
COc1ccc(/C=N/NC(=S)Nc2ccc(I)cc2)cc1 [Compound 51] | 14.8 µM | > 256 µM | > 256 µM | IC50 [1]: 14.8 µM; CC50 at 24 h [2, 9]: ≥ 275 µM; CC50 [2]: > 300 µM; unspecific cytotoxicity towards Vero cells (in words) [2]: did not exhibit unspecific cytotoxicity; JC-1 fluorescence distribution in trophozoites (fluorescence microscopy) [8]: fluorescence restricted to certain regions of the parasite
O=[N+]([O-])c1ccc(/C=N/NC(=S)Nc2ccc([N+](=O)[O-])cc2)cc1 [Compound 62] | 152 µM | 53.5 ± 4.82 µM | > 256 µM | –
COc1ccc(NC(=S)NN)cc1 [Compound 23] | 256 µM | > 256 µM | 53.5 ± 13 µM | IC50 ([5]; Trypanosoma cruzi): 59.9 ± 10.4 µM; CC50 at 48 h [6]: > 256 µM
COc1ccc(/C=N/NC(=S)Nc2ccc(Cl)cc2)cc1 [Compound 46] | 32.3 µM | 49.7 ± 3.76 µM | 30.5 ± 4.1 µM | CC50 at 24 h [2, 9]: > 300 µM
O=[N+]([O-])c1ccc(NC(=S)N/N=C/c2ccc(O)c(O)c2)cc1 [Compound 61] | 128 µM | 5.37 ± 0.3 µM | 111 ± 14.8 µM | –
Oc1ccc(/C=N/NC(=S)Nc2ccc(Br)cc2)cc1 [Compound 47] | 52.4 µM | 67 ± 5.43 µM | 42.8 ± 12 µM | –
Oc1ccc(/C=N/NC(=S)Nc2ccc(I)cc2)cc1O [Compound 52] | 24.9 µM | 20.8 ± 7.92 µM | 69.4 ± 4.73 µM | CC50 at 24 h [2, 9]: > 300 µM
